This passage reports IC50 results from patent US12351570B2 (MERCK PATENT GMBH, priority 2018, dated 2025).

In general, IC50 refers to the concentration that inhibits the measured activity by half. A lower IC50 goes with greater potency.

The subject of this assay is MDA-MB-231 cells. In words: Extracellular lactate production inhibition after 4 h, MDA-MB-231. As to conditions: Homo sapiens, MDA-MB-231.
As to `Cc1cc(C#Cc2cc(F)ccc2NS(=O)(=O)c2ccc(-c3ccccc3)cc2)cnc1C(=O)O` [Compound 308, 5-[2-(2-{[1,1′-biphenyl]-4-sulfonamido}-5-fluorophenyl)ethynyl]-3-methylpyridine-2-carboxylic acid], the IC50 lay in the range of 100 to 1000 nM.
For `Cc1cc(C#Cc2cc(F)ccc2NS(=O)(=O)c2ccc3c(c2)oc2ccccc23)cnc1C(=O)O` [Compound 309, 5-[2-(5-fluoro-2-{8-oxatricyclo[7.4.0.0^2,7]trideca-1(9),2(7),3,5,10,12-hexaene-5-sulfonamido}phenyl)ethynyl]-3-methylpyridine-2-carboxylic acid] the value was 100 to 1000 nM; for `Cc1ccc2c(C)ccnc2c1S(=O)(=O)Nc1ccccc1C#Cc1ccc(C(=O)O)nc1` [Compound 310, 5-{2-[2-(4,7-dimethylquinoline-8-sulfonamido)phenyl]ethynyl}pyridine-2-carboxylic acid], 10 to 100 nM; for `COc1ccc(S(=O)(=O)Nc2ccc(F)cc2C#Cc2cnc(C(=O)O)c(C)c2)c2ncccc12` [Compound 311, 5-{2-[5-fluoro-2-(5-methoxyquinoline-8-sulfonamido)phenyl]ethynyl}-3-methylpyridine-2-carboxylic acid], 100 to 1000 nM.
In turn, `COC(=O)c1ncc(C#Cc2cc(F)ccc2NS(=O)(=O)c2c(C)ccc3cccnc23)cc1C` [Compound 312, methyl 5-{2-[5-fluoro-2-(7-methylquinoline-8-sulfonamido)phenyl]ethynyl}-3-methylpyridine-2-carboxylate] had an IC50 of 1000 to 100000 nM.
`COC(=O)c1ncc(C#Cc2cc(F)ccc2NS(=O)(=O)c2ccc(-c3ccccc3)cc2)cc1C` [Compound 313, methyl 5-[2-(2-{[1,1′-biphenyl]-4-sulfonamido}-5-fluorophenyl)ethynyl]-3-methylpyridine-2-carboxylate] yielded an IC50 of 1000 to 100000 nM.
`O=C(O)c1ccc(C#Cc2ccccc2NS(=O)(=O)c2cccc3c(Cl)cc(Cl)nc23)cn1` [Compound 314, 5-{2-[2-(2,4-dichloroquinoline-8-sulfonamido)phenyl]ethynyl}pyridine-2-carboxylic acid] had an IC50 of 100 to 1000 nM.
Turning to `O=C(O)c1ccc(C#Cc2ccccc2NS(=O)(=O)c2c(Br)ccc3ccc(Cl)nc23)cn1` [Compound 315, 5-{2-[2-(7-bromo-2-chloroquinoline-8-sulfonamido)phenyl]ethynyl}pyridine-2-carboxylic acid], the IC50 was in the range of 10 to 100 nM.
The same measure for `COC(=O)c1ncc(C#Cc2cc(F)ccc2NS(=O)(=O)c2ccc(OC)c3cccnc23)cc1C` [Compound 316, methyl 5-{2-[5-fluoro-2-(5-methoxyquinoline-8-sulfonamido)phenyl]ethynyl}-3-methylpyridine-2-carboxylate]: 1000 to 100000 nM; for `Cc1ccc2cc(Cl)cc(S(=O)(=O)Nc3ccccc3C#Cc3ccc(C(=O)O)nc3)c2n1` [Compound 317, 5-{2-[2-(6-chloro-2-methylquinoline-8-sulfonamido)phenyl]ethynyl}pyridine-2-carboxylic acid]: 100 to 1000 nM.
Turning to `COC(=O)c1ncc(C#Cc2cc(F)ccc2NS(=O)(=O)c2ccc3c(c2)oc2ccccc23)cc1C` [Compound 318, methyl 5-[2-(5-fluoro-2-{8-oxatricyclo[7.4.0.0^2,7]trideca-1(9),2(7),3,5,10,12-hexaene-5-sulfonamido}phenyl)ethynyl]-3-methylpyridine-2-carboxylate], the IC50 fell in the range of 1000 to 100000 nM.
As for `O=C(O)c1ccc(C#Cc2ccccc2NS(=O)(=O)c2c(Br)ccc3c(Cl)ccnc23)cn1` [Compound 319, 5-{2-[2-(7-bromo-4-chloroquinoline-8-sulfonamido)phenyl]ethynyl}pyridine-2-carboxylic acid], the half-inhibitory concentration (IC50) fell in the range of 10 to 100 nM.
Turning to `O=C(O)c1ccc(C#Cc2ccccc2NS(=O)(=O)c2c(F)ccc3c(Cl)ccnc23)cn1` [Compound 320, 5-{2-[2-(4-chloro-7-fluoroquinoline-8-sulfonamido)phenyl]ethynyl}pyridine-2-carboxylic acid], the IC50 was in the range of 10 to 100 nM.
With `COC(=O)c1ncc(C#Cc2cc(F)ccc2NS(=O)(=O)c2cccc(OC)c2)cc1C` [Compound 321, methyl 5-{2-[5-fluoro-2-(3-methoxy-benzenesulfonamido)phenyl]ethynyl}-3-methylpyridine-2-carboxylate], the 50% inhibitory concentration (IC50) lay within 1000 to 100000 nM.
The same measure for `COc1cccc(S(=O)(=O)Nc2ccc(F)cc2C#Cc2cnc(C(=O)O)c(C)c2)c1` [Compound 322, 5-{2-[5-fluoro-2-(3-methoxybenzene-sulfonamido)phenyl]ethynyl}-3-methylpyridine-2-carboxylic acid]: 1000 to 100000 nM.
For `O=C(O)c1ncc(C#Cc2ccccc2NS(=O)(=O)c2cccc3c(Cl)ccnc23)cc1Cl` [Compound 323, 3-chloro-5-{2-[2-(4-chloroquinoline-8-sulfonamido)phenyl]ethynyl}pyridine-2-carboxylic acid] the value was 1000 to 100000 nM; for `COc1ccnc2c(S(=O)(=O)Nc3ccccc3C#Cc3ccc(C(=O)O)nc3)cccc12` [Compound 324, 5-{2-[2-(4-methoxyquinoline-8-sulfonamido)phenyl]ethynyl}pyridine-2-carboxylic acid], 100 to 1000 nM.
`COc1ccc(S(=O)(=O)Nc2cc(F)c(Br)cc2C#Cc2ccc(C(=O)O)nc2)c2ncccc12` [Compound 325, 5-{2-[5-bromo-4-fluoro-2-(5-methoxy-quinoline-8-sulfonamido)phenyl]-ethynyl}pyridine-2-carboxylic acid] yielded an IC50 of 1 to 10 nM.
The compound `O=C(O)c1ccc(C#Cc2ccccc2NS(=O)(=O)/C=C/c2ccccc2)cn1` [Compound 326, 5-(2-{2-[(E)-2-phenylethenesulfon-amido]phenyl}ethynyl)pyridine-2-carboxylic acid] had an IC50 of 1000 to 100000 nM.
`CCOc1ccc(C#Cc2ccc(C(=O)O)nc2)c(NS(=O)(=O)c2cccc3cccnc23)c1` [Compound 327, 5-[4-Ethoxy-2-(quinoline-8-sulfonylamino)-phenylethynyl]-pyridine-2-carboxylic acid] showed an IC50 of 1000 to 100000 nM.
The same measure for `COc1ccc(S(=O)(=O)Nc2ccc(Br)cc2C#Cc2ccc(C(=O)O)nc2)c2ncccc12` [Compound 328, 5-{2-[5-bromo-2-(5-methoxyquinoline-8-sulfonamido)phenyl]ethynyl}pyridine-2-carboxylic acid]: 1 to 10 nM; for `CCOc1ccc(NS(=O)(=O)c2cccc3cccnc23)c(C#Cc2ccc(C(=O)O)nc2)c1` [Compound 329, 5-[5-Ethoxy-2-(quinoline-8-sulfonylamino)-phenylethynyl]-pyridine-2-carboxylic acid]: 100 to 1000 nM; for `COCCOCCOc1ccnc2c(S(=O)(=O)Nc3ccccc3C#Cc3ccc(C(=O)O)nc3)cccc12` [Compound 330, 5-[2-(2-{4-[2-(2-methoxyethoxy)-ethoxy]quinoline-8-sulfonamido}-phenyl)ethynyl]pyridine-2-carboxylic acid]: 1000 to 100000 nM.
`CC(C)(C)OC(=O)NCCOCCOCCOc1ccc(NS(=O)(=O)c2cccc3cccnc23)c(C#Cc2ccc(C(=O)O)nc2)c1` [Compound 331, 5-[5-{2-[2-(2-tert-Butoxycarbonylamino-ethoxy)-ethoxy]-ethoxy}-2-(quinoline-8-sulfonylamino)-phenylethynyl]-pyridine-2-carboxylic acid] showed an IC50 of 1000 to 100000 nM.
In turn, `NCCOCCOCCOc1ccc(C#Cc2ccc(C(=O)O)nc2)c(NS(=O)(=O)c2cccc3cccnc23)c1` [Compound 332, 5-[4-{2-[2-(2-Amino-ethoxy)-ethoxy]-ethoxy}-2-(quinoline-8-sulfonylamino)-phenylethynyl]-pyridine-2-carboxylic acid] gave a 50% inhibitory concentration (IC50) of 1000 to 100000 nM.
For `NCCOCCOCCOc1ccc(NS(=O)(=O)c2cccc3cccnc23)c(C#Cc2ccc(C(=O)O)nc2)c1` [Compound 333, 5-[5-{2-[2-(2-Amino-ethoxy)-ethoxy]-ethoxy}-2-(quinoline-8-sulfonylamino)-phenylethynyl]-pyridine-2-carboxylic acid], the IC50 lay in the range of 1000 to 100000 nM.
The same measure for `O=C(O)c1ccc(C#Cc2ccccc2NS(=O)(=O)/C=C/c2ccccc2)cc1` [Compound 334, 4-(2-{2-[(E)-2-phenylethenesulfonamido]-phenyl}ethynyl)benzoic acid]: 100 to 1000 nM; for `Cc1cc(S(=O)(=O)Nc2ccccc2C#Cc2cnc(C(=O)O)c(Cl)c2)c2ncccc2c1` [Compound 335, 3-chloro-5-{2-[2-(6-methylquinoline-8-sulfonamido)phenyl]ethynyl}pyridine-2-carboxylic acid]: 1000 to 100000 nM.
The same measure for `CCOc1ccc(S(=O)(=O)Nc2ccccc2C#Cc2ccc(C(=O)O)nc2)c2ncccc12` [Compound 336, 5-{2-[2-(5-ethoxyquinoline-8-sulfonamido)phenyl]ethynyl}pyridine-2-carboxylic acid]: 10 to 100 nM; for `CC(C)Oc1ccc(S(=O)(=O)Nc2ccccc2C#Cc2ccc(C(=O)O)nc2)c2ncccc12` [Compound 339, 5-(2-{2-[5-(propan-2-yloxy)quinoline-8-sulfonamido]phenyl}ethynyl)pyridine-2-carboxylic acid]: 10 to 100 nM.
For `Cc1ccc2cccnc2c1S(=O)(=O)Nc1ccc(Br)cc1C#Cc1ccc(C(=O)O)nc1` [Compound 340, 5-{2-[5-bromo-2-(7-methylquinoline-8-sulfonamido)phenyl]ethynyl}pyridine-2-carboxylic acid] the value was 1 to 10 nM; for `Cc1ccc2cccnc2c1S(=O)(=O)Nc1cc(F)c(Br)cc1C#Cc1ccc(C(=O)O)nc1` [Compound 341, 5-{2-[5-bromo-4-fluoro-2-(7-methylquinoline-8-sulfonamido)phenyl]-ethynyl}pyridine-2-carboxylic acid], 1 to 10 nM; for `CCc1ccc2cccnc2c1S(=O)(=O)Nc1ccccc1C#Cc1ccc(C(=O)O)nc1` [Compound 342, 5-{2-[2-(7-ethylquinoline-8-sulfonamido)phenyl]ethynyl}pyridine-2-carboxylic acid], 1 to 10 nM.
`CCc1cc(C#Cc2ccccc2NS(=O)(=O)c2cccc3cccnc23)cnc1C(=O)O` [Compound 345, 3-Ethyl-5-[2-(quinoline-8-sulfonylamino)-phenylethynyl]-pyridine-2-carboxylic acid] had an IC50 of 10 to 100 nM.
